Assay results from patent US12538922B2, “Composition and methods for parasite control” (priority 2019, dated 2026).
“And” between values parts separate entries of the source, which are not always exact repeats. Equal values may be shown once. Read-outs that look alike come from different tables or passages of the source.

How the values were obtained:
[1] = tested on: adult Aedes aegypti mosquitoes; assay: Mosquito repellency assay (landings and time on warm treated surface); format: in vivo; settings: for Mean probing time [%, compared to control]: 100% = same time as on vehicle-treated surface; for Repellency, % reduction in landings vs vehicle control: repellency as percentage reduction of control, 100% = no landings
Method: The compound of the invention is mixed with ethanol to make a composition that can be applied to a surface and allowed to dry. After the surface is treated with the compounds of the invention and dried, it is heated to human body temperature, and the number of landings and the total time spent by the mosquitoes on the warm surface by adult Aedes aegypti mosquitoes is recorded automatically by machine vision to measure repellency of each compound.
Repellency (based on the number of individual landings on the warm surface) is expressed as a percentage reduction of the control, where the average number of mosquitoes landing on a warm surface treated only with the vehicle solvent is counted. 100% means no mosquitoes landed on the warm surface.
For mosquitoes that still landed on the warm surface, the time spent on the warm surface is also recorded and expressed as a percentage of the control, corresponding to the average time that mosquitoes spent on the same warm surface when treated only with the vehicle solvent. 100% mean that the mosquitoes spent the same time on the treated warm surface as on a warm surface treated only with the vehicle solvent.
Each compound/dose is tested in triplicate using a surface of 18.9 cm2 and 100 microliters of solution without the compound (the placebo) or with the compound dilution spread on the surface, and allowed to dry before the test. The average and standard error on triplicates is calculated. The control (using only vehicle solvent) is run with ethanol. The same population of mosquitoes is exposed first to the warm surface treated with the vehicle solvent, then to the surface treated with the compound. The concentration of the solution comprising the test compound was adjusted to ensure the treatment dosage of the compound is according to the final concentration per surface units area in the table.

[2] = tested on: R. sanguineus tick larvae; settings: for Repellence Median (Q1-Q3) [%] / Knockdown Median (Q1-Q3) [%]: pure compound; for Repellence Median (Q1-Q3) [%]: median of replicates; for Knockdown Median (Q1-Q3) [%]: motility reduction over 9 min; for Knockdown Minimum effective concentration / Repellence Minimum effective concentration: smallest concentration with median activity above 50% significance limit
Method: FIG. 1 Schematic representation of the tick repellent test. 30-60 tick larvae are deposited in the non-treated area of a circular arena (8.96 cm^2) whereby one quadrant of the surface (2.25 cm^2) is treated. After 1 minute, the distribution of ticks in the treated and untreated areas is measured for a duration of 2 minutes. The repellent/deterrent effect is expressed in %: 100% means that ticks completely avoided the treated surface. Toxicity is measured in the same setup over a duration of 8 minutes and the mortality is expressed in % motility reduction between the beginning and the end of the 8 minutes. Dosages are expressed as a quantity (mg or molarity) per surface unit (m^2), as the compound or extract is deposited at the bottom of the well. Pure compounds: dose given in micromoles/m^2; Extracts: dose given in micrograms/m^2. Tests were run in triplicates.
The assay is used to evaluate the repellent/deterrent potential of a test compound or extract. The test includes a preliminary assessment of knockdown efficacy as a secondary endpoint. Knockdown can be defined as a state of intoxication and paralysis that usually precedes death (Wickham et al. (1974) Pesticide Science 5(5): 657-664). The test relies on the questing behavior of ticks that explore their habitat to find a suitable host hunting site and their propensity to avoid areas treated with repellent or irritating substances. Tick knockdown is expressed as a reduction in total motility over a defined period of time, and not by collecting and counting the number of dead and live ticks at the end of the exposure period.
Plant extracts or synthetic pure alkaloids diluted in methanol (extracts) or ethanol (alkaloids) were deposited on the bottom of wells in a six-well plate. Only one quadrant ([…]) of the bottom surface of each well was treated. The solvent was left to evaporate. The final concentration of the plant extracts was, therefore, expressed in mg/m^2, or in micromoles per square meter (μmol/m^2) for the synthetic alkaloids. Final concentrations applied for plant extracts were 893 (R. sanguineus adults only), 446, 141, 44.6, 14.1, and 4.46 mg/m^2, and 300, 100, 30, 10, and 3 μmol/m^2 for pure alkaloids. Approximately 50 R. sanguineus tick larvae, and exactly 5 R. sanguineus adults, or 5 I. ricinus nymphs were added to the untreated area of each well. Positive (DEET, commercial tick repellent) and negative (methanol or ethanol) controls were evaluated in parallel. Each concentration tested was run in three or more test replicates. After a 1-min incubation on a heating plate, the frequency of tick movement in the treated quadrant and in each of the untreated quadrants was recorded by machine vision. Tick movement on the untreated surface was computed as the median of movement on the three untreated quadrants. To estimate deterrence recordings were performed over a period of 2 min for R. sanguineus larvae, and for 3 minutes for R. sanguineus adults and I. ricinus nymphs, after the 1-min pre-exposure period. To assess knockdown effect, recording was extended to 9 min (starting at the 1-min pre-exposure period and lasting an additional 8 minutes).
Deterrence activity was calculated as follows: Percent deterrence=1−(movements on treated area/movements on untreated area)×100.
A difference of 50% between total movements recorded in the treated area versus movements recorded in the untreated area was considered significant.
The tick knockdown effect was calculated similarly: Percent knockdown=1−(movements at the end of the imaging period/movements at the beginning of the imaging period)×100.
A difference of 50% between total movements recorded during the 1 min pre-exposure and total movements measured at 9 min of recording was considered significant.

[3] = Table 5, N = 3 subset of Table 4
[4] = Table 5, N = 3 subset of Table 4, dose 300
[5] = Table 5, N = 3 subset of Table 4, dose 30

SMILES | % repellency [2, 4] [%] | Repellence Median (Q1-Q3) [%] ([2]; concentration 3 μmol/m^2) | Knockdown Median (Q1-Q3) [%] ([2]; concentration 3 μmol/m^2) | Repellence Median (Q1-Q3) [%] ([2]; concentration 10 μmol/m^2) | Knockdown Median (Q1-Q3) [%] ([2]; concentration 10 μmol/m^2) | Repellence Median (Q1-Q3) [%] ([2]; concentration 30 μmol/m^2) | Knockdown Median (Q1-Q3) [%] ([2]; concentration 30 μmol/m^2) | Repellence Median (Q1-Q3) [%] ([2]; concentration 100 μmol/m^2) | Knockdown Median (Q1-Q3) [%] ([2]; concentration 100 μmol/m^2) | Repellence Median (Q1-Q3) [%] ([2]; concentration 300 μmol/m^2) | Knockdown Median (Q1-Q3) [%] ([2]; concentration 300 μmol/m^2) | Knockdown Minimum effective concentration [2] [μmol/m^2] | further results
C1=CC[C@H](c2cccnc2)NC1 (single isomer, unassigned) [R enantiomer base, R-(+) anatabine] | – | – | – | – | – | – | – | – | – | – | – | – | Mean probing time [%, compared to control] ([1]; dose 75 μmol/m^2): 29.0%; Repellency, % reduction in landings vs vehicle control ([1]; dose 75 μmol/m^2): 68.9%; Mean probing time [%, compared to control] ([1]; dose 380 μmol/m^2): 2.7%; Repellency, % reduction in landings vs vehicle control ([1]; dose 380 μmol/m^2): 77.9%
C1=CC[C@@H](c2cccnc2)NC1 (single isomer, unassigned) [S enantiomer base, S-(−) anatabine] | – | – | – | – | – | – | – | – | – | – | – | – | Mean probing time [%, compared to control] ([1]; dose 75 μmol/m^2): 20.6%; Repellency, % reduction in landings vs vehicle control ([1]; dose 75 μmol/m^2): 86.5%; Mean probing time [%, compared to control] ([1]; dose 380 μmol/m^2): 1.6%; Repellency, % reduction in landings vs vehicle control ([1]; dose 380 μmol/m^2): 90.0%
c1cncc([C@@H]2CCCCN2)c1 [(S)-anabasine] | 9 | 6.6 | 0 | 42.4% | 6.9 | 46.9% | 10.4 | 58 | 6.0% | 40.5% | 9.5% | >300 | MEC (μmol/m^2) [2, 3]: >300 μmol/m^2; % mortality [2, 4]: 14%
CN1CCC[C@H]1c1cccnc1 [(S)-nicotine] | – | – | 3.4 | – | 1.3 | – | 26.4 | – | 37% and 37.1% | – | 95% and 94.5% | 300 | –
c1cncc([C@@H]2CCCN2)c1 [(S)-nornicotine] | 70 | 12.3 | 0.7 | 35.3% | 0.4 | 27.9% | 9.9 | 42.2 | 9% | 81% and 81.1% | 18.7% | >300 | MEC (μmol/m^2) [2, 3]: 300 μmol/m^2; % mortality [2, 5]: 11%; % repellency [2, 5]: 5%; % mortality [2, 4]: 49%; Repellence Minimum effective concentration [2]: 300 μmol/m^2
CCN(CC)C(=O)c1cccc(C)c1 [DEET, N,N-Diethyl-m-toluamide] | 100 | 31.1 | 0.7 | 57% and 57.3% | 10.0 | 64% and 63.9% | 2.4 | 75.7 | 5.2% | 100% | 11.1% | >300 | % repellency ([2]; Table 5, N = 3 subset of Table 4, dose 3): 27%; % repellency [2, 5]: 26%; % mortality ([2]; in vivo): 11%; % repellency ([2]; positive control, dose 8.5 (mg/m^2)): 81.6%; Repellence Minimum effective concentration [2]: 10 μmol/m^2; MEC (Repellency) (mg/m^2) ([2]; tobacco extracts and DEET positive control): 8.5 mg/m^2
C1=CCC(c2cccnc2)NC1 (centres unmarked) [anatabine] | – | – | – | – | – | – | – | – | – | – | – | – | mosquito repellency, base form compared with HCl salt form ([1]; in vivo): significantly better mosquito repellent than in the HCl salt form; time spent by mosquitoes on treated surface, base form compared with HCl salt form ([1]; in vivo): much shorter time
